Results published in patent US11866408B2, “N,N-dimethyltryptamine and related psychedelics and uses thereof” (Terran Biosciences Inc., priority 2021, dated 2024).

Columns and labels:
[1] = Single intravenous dose pharmacokinetics study in rats (1 mg/kg IV; plasma levels of prodrug and of DMT or 5-MeO-DMT by LC-MS/MS); settings: for AUC(0-t) / AUC(0-inf) / clearance / MRT / Vd / half-life: male, Sprague-Dawley, rat, iv, 1 mg/kg; for clearance: CL/CL_F (mL/min/kg); for MRT: MRT (h); for Vd: Vdss (L/kg); for half-life: t1/2 (h)
[2] = Single oral dose pharmacokinetics study in rats (10 mg/kg PO; plasma levels of prodrug and of metabolite DMT or 5-MeO-DMT by LC-MS/MS); settings: for AUC(0-t) / Cmax: male, Sprague-Dawley, rat, po, 10 mg/kg
[3] = IV 1 mg/kg, plasma, analyte = dosed compound
[4] = plasma, AUC0-t (nM.hr), IV 1 mg/kg, analyte = dosed compound
[5] = plasma, AUC0-t (ng.hr/mL), IV 1 mg/kg, analyte = dosed compound
[6] = PO 10 mg/kg, plasma, analyte = dosed compound
[7] = plasma, AUC0-t (nM.hr), PO 10 mg/kg, analyte = dosed compound
[8] = plasma, AUC0-t (ng.hr/mL), PO 10 mg/kg, analyte = dosed compound
[9] = plasma, C0/Cmax (nM), PO 10 mg/kg, analyte = dosed compound
[10] = plasma, C0/Cmax (ng/mL), PO 10 mg/kg, analyte = dosed compound, mean/median
[11] = plasma, AUCinf (nM.hr), IV 1 mg/kg, analyte = dosed compound
[12] = plasma, AUCinf (ng.hr/mL), IV 1 mg/kg, analyte = dosed compound
[13] = plasma, IV 1 mg/kg, analyte = dosed compound
[14] = IV 1 mg/kg Plasma (t= 0 to Ihr)
[15] = plasma, IV 1 mg/kg Plasma (t= 0 to Ihr)
[16] = PO 10 mg/kg Plasma (t= 0 to Ihr)

SMILES | AUC % Back Extrapolation to C0 [1, 3] | AUC % Extrapolation to infinity [1, 3] | Clast [1, 3] | tlast [1, 3] | AUC(0-t) [1, 4] | AUC(0-t) [1, 5] | Clast [2, 6] | tlast [2, 6] | AUC(0-t) [2, 7] | AUC(0-t) [2, 8] | Cmax [2, 9] | Cmax [2, 10] | AUC(0-inf) [1, 11] | AUC(0-inf) [1, 12] | clearance [1, 13] | MRT [1, 13] | Vd [1, 13] | half-life [1, 13] | AUC % Extrapolation to infinity [2, 6] | CL/CL_F [2, 6] | further results
CCOC(=O)n1cc(CCN(C)C)c2cc(OC)ccc21 [Compound 19, Ethyl 3-[2-(dimethylamino)ethyl]-5-methoxy-indole-1-carboxylate] | 59.7% | 0.104% | 2.95 ng/mL | 5.50 h | 14.4 µM·h | 4170 ng·h/mL | 1.90 ng/mL | 24.0 h | 0.237 µM·h | 68.8 ng·h/mL | 8.15 nM | 2.37 ng/mL | – | – | – | – | – | – | – | – | –
COc1ccc2c(c1)c(CCN(C)C)cn2P(=O)(OC(C)C)OC(C)C [Diisopropylphosphonate 5-MeO-DMT Prodrug, 2-(1-diisopropoxyphosphoryl-5-methoxy-indol-3-yl)-N,N-dimethyl-ethanamine] | 7.68% | 7.01% | 5.32 ng/mL | 4.00 h | 0.273 µM·h | 104 ng·h/mL | 2.84 ng/mL | 24.1 h | 0.921 µM·h | 352 ng·h/mL | 210 nM | 80.4 ng/mL | 0.295 µM·h | 113 ng·h/mL | 150 mL/min/kg | 83.4 min | 12.2 L/kg | 60.6 min | 7.77% | 450 mL/min/kg | Bioavailability (%) Using AUCinf ([2]; PO 10 mg/kg vs IV 1 mg/kg, plasma, analyte = dosed compound): 33.8%
COc1ccc2[nH]cc(CCN(C)C)c2c1 [Compound 5-MeO-DMT, 5-methoxy-N,N-dimethyltryptamine, reference compound] | 26.8% | 0.204% | 1.68 ng/mL | 5.50 h | 4.95 µM·h | 1080 ng·h/mL | 1.95 ng/mL | 2.00 h | – | – | 13.9 nM | 3.03 ng/mL | 4.95 µM·h | 1080 ng·h/mL | 24.6 mL/min/kg | 37.4 min | 0.818 L/kg | 30.6 min | – | – | –
CN(C)CCc1c[nH]c2ccccc12 [DMT, N,N-dimethyltryptamine] | 66.4% | 0.690% | 7.12 ng/mL | 1.50 h | 1.14 µM·h | 214 ng·h/mL | 1.52 ng/mL | 24.0 h | 0.314 µM·h | 59.1 ng·h/mL | 69.4 nM | 13.1 ng/mL | 1.15 µM·h | 216 ng·h/mL | 85.8 mL/min/kg | 9.12 min | 0.774 L/kg | 8.76 min | 42.6% | 1639 mL/min/kg | AUC % Back Extrapolation to C0 [1, 14]: 67.2%; AUC % Extrapolation to infinity [1, 14]: 0.502%; Clast [1, 14]: 5.51 ng/mL; tlast [1, 14]: 1.00 h; AUC(0-t) ([1]; plasma, AUC0-t (nM.hr), IV 1 mg/kg Plasma (t= 0 to Ihr)): 1.13 µM·h; AUC(0-t) ([1]; plasma, AUC0-t (ng.hr/mL), IV 1 mg/kg Plasma (t= 0 to Ihr)): 213 ng·h/mL; AUC(0-inf) ([1]; plasma, AUCinf (nM.hr), IV 1 mg/kg Plasma (t= 0 to Ihr)): 1.14 µM·h; AUC(0-inf) ([1]; plasma, AUCinf (ng.hr/mL), IV 1 mg/kg Plasma (t= 0 to Ihr)): 214 ng·h/mL; clearance [1, 15]: 87.1 mL/min/kg; MRT [1, 15]: 7.92 min; Vd [1, 15]: 0.645 L/kg; half-life [1, 15]: 8.4 min; Clast [2, 16]: 3.18 ng/mL; tlast [2, 16]: 1.02 h; Bioavailability (%) Using AUC0-t ([2]; PO 10 mg/kg Plasma (t= 0 to Ihr) vs IV 1 mg/kg): 0.212%; AUC(0-t) ([2]; plasma, AUC0-t (nM.hr), PO 10 mg/kg Plasma (t= 0 to Ihr)): 0.0239 µM·h; AUC(0-t) ([2]; plasma, AUC0-t (ng.hr/mL), PO 10 mg/kg Plasma (t= 0 to Ihr)): 4.51 ng·h/mL; Cmax ([2]; plasma, C0/Cmax (nM), PO 10 mg/kg Plasma (t= 0 to Ihr)): 47.1 nM; Cmax ([2]; plasma, C0/Cmax (ng/mL), PO 10 mg/kg Plasma (t= 0 to Ihr)): 8.87 ng/mL
